Each structure is given as a SMILES string.

One data set deals with T1, FGFR.
T1 construct: fused on or other part: GST tag
Put plainly: FGFR kinase HTRF assay. It counts as biochemical. The settings on record: 1.5 nM activated FGFR, 10 μM ATP; read-out: Inhibition of FGFR IC50. As for the experimental part: (§1) To determine inhibition of KDR and FGFR, kinase assays were conducted using an HTRF (Homogeneous Time Resolved Fluorescence) assay. This assay is described in A. J. Kolb et. al., Drug Discovery Today, 1998, 3(7), p 333.
FGFR activity assays were carried out as described above for the KDR activity assay with the following differences. GST-tagged FGFR enzyme was activated at room temperature for 1 hour in the following activation buffer: 100 mM HEPES, pH 7.4, 50 mM NaCl, 20 mM MgCl2, and 4 mM ATP. […] The rest of the assay was performed in the same manner as KDR assay.
(§2) Compound IC50 values were determined from duplicate sets of data, and calculated by using Excel and fitting data to equation Y=[(a−b)/{1+(X/c)^d]+b, where a and b are enzyme activity in the presence of no test inhibitor compound and an infinite amount of inhibitor test compound, respectively, c is the IC50 and d is the hill constant of the compound response. The IC50 value is the concentration of test compound that reduces by 50% the enzyme activity under the test conditions described.

For a further data set, the target named is T2, KDR (Homo sapiens, UniProt P35968).
T2 construct: EEE tag
T2 sequence (P35968 20-1356, species assumed): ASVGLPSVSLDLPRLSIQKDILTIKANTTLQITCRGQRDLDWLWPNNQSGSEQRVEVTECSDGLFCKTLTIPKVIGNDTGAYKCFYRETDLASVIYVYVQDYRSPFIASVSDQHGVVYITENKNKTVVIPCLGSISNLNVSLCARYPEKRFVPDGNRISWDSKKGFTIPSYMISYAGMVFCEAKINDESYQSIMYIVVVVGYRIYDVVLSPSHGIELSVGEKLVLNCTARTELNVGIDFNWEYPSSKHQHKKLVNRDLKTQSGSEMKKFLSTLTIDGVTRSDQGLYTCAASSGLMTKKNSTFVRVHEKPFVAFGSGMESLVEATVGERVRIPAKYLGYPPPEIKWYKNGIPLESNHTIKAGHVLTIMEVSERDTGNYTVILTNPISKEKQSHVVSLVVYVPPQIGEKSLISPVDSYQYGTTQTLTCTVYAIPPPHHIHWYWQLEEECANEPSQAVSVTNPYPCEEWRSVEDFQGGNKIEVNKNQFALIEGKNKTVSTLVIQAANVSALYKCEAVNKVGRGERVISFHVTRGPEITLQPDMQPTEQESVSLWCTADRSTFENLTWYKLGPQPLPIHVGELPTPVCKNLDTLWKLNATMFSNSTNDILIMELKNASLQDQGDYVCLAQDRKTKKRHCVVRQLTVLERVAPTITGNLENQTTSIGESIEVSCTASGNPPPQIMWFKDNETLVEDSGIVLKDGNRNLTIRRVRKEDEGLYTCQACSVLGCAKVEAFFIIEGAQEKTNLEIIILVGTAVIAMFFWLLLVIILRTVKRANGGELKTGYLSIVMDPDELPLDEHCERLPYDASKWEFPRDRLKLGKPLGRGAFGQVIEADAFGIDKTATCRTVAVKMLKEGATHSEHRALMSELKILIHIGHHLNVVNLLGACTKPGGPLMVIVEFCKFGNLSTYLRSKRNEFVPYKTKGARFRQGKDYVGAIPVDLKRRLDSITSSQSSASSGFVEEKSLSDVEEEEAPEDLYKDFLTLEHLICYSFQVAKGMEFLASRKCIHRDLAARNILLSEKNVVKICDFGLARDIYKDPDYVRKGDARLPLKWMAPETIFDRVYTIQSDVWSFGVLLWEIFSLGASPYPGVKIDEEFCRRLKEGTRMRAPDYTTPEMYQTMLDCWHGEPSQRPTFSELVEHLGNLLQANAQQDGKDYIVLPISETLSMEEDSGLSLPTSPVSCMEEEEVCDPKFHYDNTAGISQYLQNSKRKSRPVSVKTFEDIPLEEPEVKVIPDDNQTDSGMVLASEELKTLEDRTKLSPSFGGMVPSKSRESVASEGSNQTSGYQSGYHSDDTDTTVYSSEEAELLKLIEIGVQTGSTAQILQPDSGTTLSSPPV
Put plainly: KDR kinase HTRF assay. It counts as biochemical. As to conditions: 1 nM activated KDR, 0.3 mM ATP, 37° C. for 30 minutes; read-out: Inhibition of KDR IC50. As for the experimental part:
as §1
Prior to kinase reaction, recombinant EEE-tagged KDR was activated in the presence of activation buffer (50 mM HEPES, pH 7.4, 1 mM DTT, 10% glycerol, 150 mM NaCl, 0.1 mM EDTA, 26 mM MgCl2, and 4 mM ATP). The enzyme was incubated at 4° C. for 1 hour.
Kinase activity assays were performed in 96-well polypropylene plates (Falcon) with a total volume of 90 μL in each well. Each well contained 1 μM KDR substrate (Biotin-[…]), 1 nM activated KDR, and a test compound with one of 8 assay concentrations ranging from […] to […] (1:5 serial dilution). […] The reaction was incubated at 37° C. for 30 minutes. To stop the KDR reaction, 72 μL of reaction mixture was transferred into a STOP plate containing 18 μL of revelation buffer (20 mM EDTA, 50 mM HEPES, pH 7.4, 0.02% BSA, 10 nM Eu-labelled anti-pY antibody (final conc. 2 nM), and 100 nM streptavidin (final conc. 20 nM)). After mixing, 35 μL of solution was transferred into duplicate wells of a 384-well black plate (Costar), and read at 615/665 nm on a Wallac Victor 5 reader.
as §2

A further data set concerns FGF-stimulated HUVEC. Put plainly: FGF-stimulated HUVEC proliferation assay (BrdU). It counts as cell-based. The settings on record: Homo sapiens, BrdU labeling, FGF 5 ng per mL, 24 hour exposure, read-out: Antiproliferative Activity FGF-stimulated HUVEC Assay IC50. The procedure:
(§3) The antiproliferative activity of test compounds of this invention in cell-based assays was evaluated by BrdU assay using the BrdU kit (Roche Biochemicals 1-647-229). Human umbilical vein endothelial cells (HUVEC, Clonetics CC-2519) were cultured in EGM-2 (Clonetics CC-3162) medium and seeded at 10000 cells per well in a volume of 200 μL of EGM-2 (Clonetics CC-3162) media in a 96-well flat bottom plates (Costar 3595) overnight. After 24 hours of growth at 37° C. with 5% CO2, the incubation media was removed slowly by aspiration, and the content of each well was washed with 300 μL pre-warmed EBM-2 (Clonetics CC-3156) containing 50 μg per mL of gentamycin and 50 ng per mL of amphotercin-B (Clonetics CC-4083). Subsequently, the remaining media was again aspirated and replaced with 160 μL per well of serum starvation media (EBM-2 supplemented with 1% heat inactivated FBS (Clonetics CC-4102), 50 μg per mL gentamycin and 50 ng per mL of amphotercin-B (Clonetics CC-4083), 10 units per mL of Wyeth-Ayerst heparin (NDC0641-0391-25), and 2 mM L-glutamine (GIBCO 25030-081). After serum starving the cells for 24 hours, 20 μL of test compound at 10× test concentration in serum starvation medium with 2.5% DMSO was added to the appropriate wells. The control wells contained 20 μL of serum starvation medium with 2.5% DMSO. Plates were returned to the incubator for 2 hours. After pre-incubating the cells with the test compounds for 2 hours, 20 μL of growth factors at 10X assay concentration diluted in serum starvation media, FGF at 50 ng per mL, or VEGF (R&D systems 293-VE) at 200 ng per mL were added. The final concentration of FGF in the assay was 5 ng per mL and the final concentration of VEGF in the assays was 20 ng per mL. The growth factor free control wells had 20 μL per well of serum starvation media with the same amount of BSA as the wells with growth factors. The plates were returned to the incubator for an additional 22 hours.
(§4) After 24 hour exposure to the test compounds, the cells were labeled with BrdU (Roche Biochemicals 1-647-229), by adding 20 μL per well of BrdU labeling reagent that has been diluted (1:100) in serum starvation medium. The plates were then returned to the incubator for 4 hours. The labeling medium was removed by draining the medium onto paper towels. […] The plates were read at 450 nm with reference wavelength of 650 nm. The percent inhibition for each test compound was calculated by subtracting the absorbency of the blank (no cells) wells from all wells, then subtracting the division of the average absorbency of each test duplicate by the average of the controls from 1. […] The IC50 is determined from the linear regression of a plot of the logarithm of the concentration versus percent inhibition.
Background: Uptake of a labelled nucleoside into DNA is a usual measure of proliferation.

The subject of another data set is HCT-116. Put plainly: HCT-116 (colon) cell-based MTT proliferation assay. The settings on record: Homo sapiens, HCT-116, 96 h, 4 days post addition of test compound, read-out: Antiproliferative Activity HCT 116 (colon) Assay IC50. The procedure: The estrogen receptor negative epithelial breast carcinoma line (MDA-MB-435) was purchased from American Type Cell Culture Collection (ATCC; Rockville, Md.) and was grown in the medium recommended by ATCC. For analysis of the effect of the test compounds on growth of these cells, the cells were plated at 2000 cells per well in a 96-well tissue culture plate, and were incubated overnight at 37° C. with 5% CO2. The next day, the test compounds were dissolved in 100% dimethyl sulfoxide (DMSO) to yield a 10 mM stock solution. Each compound was diluted with sterile medium to 1 mM in a sufficient quantity to yield a final concentration of 120 μM. The compounds were then serially diluted in medium with 1.2% DMSO. One-fourth final volume of the diluted compounds was transferred to 96 well plates. Test compounds were assayed in duplicate. DMSO was added to a row of “control cells” such that the final concentration of DMSO in each well was 0.3%. Wells to which no cells were added served as the “blank.” Wells to which no inhibitor was added served as “no inhibitor control”. The plates were returned to the incubator, and 5 days post addition of test compound, were analyzed as described below.
3-(4,5-Dimethylthiazole-2-yl)-2,5-diphenyl-2H-tetrazolium bromide (thiazolyl blue; MTT) was added to each well to yield a final concentration of 1 mg/mL. The plates were then incubated at 37° C. for 3 hours. The plates were centrifuged at 1000 rpm for 5 minutes prior to aspiration of the MTT-containing medium. The MTT-containing medium was then removed and 100 μL 100% ethanol was added to each well to dissolve the resulting formazan metabolite. To ensure complete dissolution, plates were shaken for 15 minutes at room temperature. Absorbencies were read in a microtiter plate reader (Molecular Dynamics) at a wavelength of 570 nm with a 650 nm reference. Percent inhibition was calculated by subtracting the absorbance of the blank (no cell) wells from all wells, then subtracting the division of the average absorbance of each test duplicate by the average of the controls from 1.00. Inhibitory concentrations (IC50) were determined from the linear regression of a plot of the logarithm of the concentration versus the percent inhibition.
The colon adenocarcinoma line SW480 and the colon carcinoma line HCT-116 also were obtained from the ATCC and were tested according to the same protocol provided above for MDA-MB-435 cell based assay with the following modifications. Cell line SW480 was plated at 1000 cells per well and analyzed at 6 days post addition of the test compound. Cell line HCT-116 was plated at 1000 cells per well and analyzed at 4 days post addition of test compound.

In another data set the target is T3, Cyclin E/CDK2 (Homo sapiens, UniProt P24941).
T3 construct: made in house; host or cells: insect cells
Put plainly: CDK2 Flash Plate Assay (Rb phosphorylation, 33P-ATP). In kind it is biochemical. The procedure: To determine inhibition of CDK2 activity, purified recombinant retinoblastoma (Rb) protein was coated on 96 well FlashPlates (New England Nuclear, Boston, Mass.). […] Recombinant active human Cyclin E/CDK2 complexes were partially purified from extracts of insect cells. […] Plates were incubated for 25 minutes at room temperature with shaking, then washed and counted in the Topcount scintillation counter (Packard Instrument Co., Downers Grove, Ill.). Dilutions of test compounds were tested in duplicate in each assay. The percent inhibition of Rb phosphorylation, which is a measure of the inhibition of CDK2 activity, was determined according to the following formula:
[formula] where “test compound” refers to the average counts per minute of the test duplicates, “nonspecific” refers to the average counts per minute when no Cyclin E/CDK2 was added, and “total” refers to the average counts per minute when no compound was added.

Another data set deals with VEGF-stimulated HUVEC. Put plainly: VEGF-stimulated HUVEC proliferation assay (BrdU). It counts as cell-based. The settings on record: Homo sapiens, BrdU labeling, VEGF 20 ng per mL, 24 hour exposure, read-out: Antiproliferative Activity VEGF-stimulated HUVEC Assay IC50. As for the experimental part: as §3, §4

In turn, `COc1cc2c(cc1Br)C(c1ccccc1Cl)=Nc1c(n[nH]c1C)N2` yielded a melting point of 210 to 211 °C. In turn, `COc1cc2c(cc1F)C(c1ccccc1Cl)=Nc1c[nH]nc1N2` gave a melting point of 242 to 243 °C.

Compound `COc1cc2c(cc1C#N)C(c1ccccc1Cl)=Nc1c[nH]nc1N2` came in with a melting point of 288 to 290 °C.

In turn, `COc1cc2c(cc1C)C(c1ccccc1Cl)=Nc1c[nH]nc1N2` yielded a melting point of 275 to 276 °C. Consider `COc1cc2c(cc1C(N)=O)C(c1ccccc1Cl)=Nc1c(n[nH]c1C)N2` [IVc], for which the IC50 on FGFR was 0.032 µM; at KDR, 0.022 µM; in the data set with FGF-stimulated HUVEC it was under 0.001 µM.

Regarding `COCCOc1cc2c(cc1OC)C(c1ccccc1Cl)=Nc1c(n[nH]c1C)N2` [IVgg, 5-(2-chlorophenyl)-1,2-dihydro-7-methoxy-8-methoxyethoxy-3-methyl-pyrazolo[3,4-b][1,4]benzodiazepine], in the data set with HCT-116, the IC50 came to 0.197 µM.

Take `Cc1[nH]nc2c1N=C(c1ccccc1Cl)c1cc(F)c(OC(C)C)cc1N2` [IVh, 5-(2-chlorophenyl)-1,2-dihydro-7-fluoro-8-(1-methylethoxy)-3-methyl-pyrazolo[3,4-b][1,4]benzodiazepine]: 0.247 µM corresponded to half-maximal inhibition against Cyclin E/CDK2 (IC50). In the case of `Cc1[nH]nc2c1N=C(c1ccccc1Cl)c1cc(F)c(OCCCN3CCOCC3)cc1N2` [IVi, 5-(2-chlorophenyl)-1,2-dihydro-7-fluoro-8-(3-(4-morpholinyl)propoxy)-3-methyl-pyrazolo[3,4-b][1,4]benzodiazepine], on KDR, the half-inhibitory concentration (IC50) came to 0.031 µM. As for `Cc1[nH]nc2c1N=C(c1ccccc1Cl)c1cc(C#N)c(OCCCN3CCOCC3)cc1N2` [IVk, 5-(2-chlorophenyl)-7-cyano-1,2-dihydro-8-(3-(4-morpholinyl)propoxy)-3-methyl-pyrazolo[3,4-b][1,4]benzodiazepine], the IC50 at FGFR came out at 0.033 µM. Turning to `COCCOc1cc2c(cc1OC)Nc1n[nH]c(C)c1N=C2c1ccccc1Cl` [IVkk, 5-(2-chlorophenyl)-1,2-dihydro-8-methoxy-7-methoxyethoxy-3-methyl-pyrazolo[3,4-b][1,4]benzodiazepine], the IC50 came out at 0.509 µM in the data set with HCT-116 and 0.024 µM at KDR.

For `Cc1cc2c(cc1C)C(c1ccccc1Cl)=Nc1c(n[nH]c1C)N2` [IVw, 5-(2-chlorophenyl)-1,2-dihydro-3,7,8-trimethyl-pyrazolo[3,4-b][1,4]benzodiazepine], the half-maximal inhibitory concentration (IC50) at FGFR is 0.038 µM; in the data set on VEGF-stimulated HUVEC, 0.022 µM; in the data set with FGF-stimulated HUVEC, 0.036 µM.

Turning to `COc1cc2c(cc1Cl)Nc1n[nH]c(C)c1N=C2c1ccccc1Cl` [IVy, 8-chloro-5-(2-chlorophenyl)-1,2-dihydro-7-methoxy-3-methyl-pyrazolo[3,4-b][1,4]benzodiazepine], the IC50 in the data set on VEGF-stimulated HUVEC amounted to 0.174 µM. Regarding `COc1cc2c(cc1C)C(c1ccccc1Cl)=Nc1c(n[nH]c1C)N2` [IVz, 5-(2-chlorophenyl)-1,2-dihydro-3,7-dimethyl-8-methoxy-pyrazolo[3,4-b][1,4]benzodiazepine], in the data set with VEGF-stimulated HUVEC, the IC50 came out at 0.012 µM.

A word on the melting point: it is the temperature of the solid-liquid transition. A word on the IC50: it is the concentration that inhibits the measured activity by half.
